In US20210145730A1, “PROCESS FOR PREPARING AN ORAL DISINTEGRATING DOSAGE FORM” (Zeenar Enterprises Pty Ltd, priority 2017, published 2021):
Counter-ions that a name gives are not always drawn. Like-named read-outs stand apart in the source and are kept apart here.

Legend:
[1] = cited from earlier work
[2] = SAXS liquid crystalline phase formation for mixes of GMO and another ingredient immersed in PBS buffer (Example 1); format: physicochemical
Experimental: The samples were then mixed via a roller mixer at ˜10 RPM at 40° C. for at least 3 days. One week prior to SAXS experiment, 100 mg samples were loaded into a transparent polystyrene 96 well plate (Nunc™) and immersed in 200 μL of PBS buffer (pH 6.8). The samples were stored away from light at ambient temperature, to allow the samples to reach equilibrium. The SAXS/WAXS beamline at Australian Synchrotron, Melbourne, Australia was used to determine the liquid crystalline nanostructure in the samples. A custom-designed plate holder was used to mount the samples plate directly onto the SAXS/WAXS beamline. Scans were automated using a pre-loaded set of position variables based on the well positions within the plate, the exposure time was 5 sec. Data were obtained at ambient temperature (˜22° C.). […] The 2-D diffraction images were recorded on a Pilatus 1M detector and radially integrated using the in-house software “ScatterBrain”.

[3] = WO 2014/179845; cited from earlier work
porcine buccal mucosa = assay: In vitro release through porcine buccal mucosa in Ussing chamber; details: up to 4 hours, n=5
[4] = 1% w/w ingredient in mix with GMO
[5] = 5% w/w ingredient in mix with GMO
[6] = 20% and above w/w ingredient in mix with GMO

CNCC(O)c1ccc(O)c(O)c1 (centres unmarked) [Adrenaline]
logP [1]: −0.5 to −1.2

COc1ccc(O)c(C(C)(C)C)c1 [Butylated hydroxy anisole (BHA), Butylated hydroxy anisole]
Liquid crystalline phase formed [2, 4]: cubic | Liquid crystalline phase formed [2, 5]: cubic + hexagonal | Liquid crystalline phase formed ([2]; 10-20% w/w ingredient in mix with GMO): hexagonal | Liquid crystalline phase formed ([2]; 30% and above w/w ingredient in mix with GMO): reverse emulsion | Phase structure ([2]; Concentration in GMO 1%): V2(Pn3m) | Phase structure ([2]; Concentration in GMO 5%): V2(Pn3m) + H2

CC1CCC(C(C)C)C(O)C1 (centres unmarked) [Menthol]
Liquid crystalline phase formed [2, 4]: Cubic | Liquid crystalline phase formed ([2]; 1% w/w ingredient in mix with GMO, listed as menthol): cubic liquid crystalline structure | Liquid crystalline phase formed [2, 5]: hexagonal liquid crystalline structure | Liquid crystalline phase formed ([2]; 5-10% w/w ingredient in mix with GMO): Hexagonal | Liquid crystalline phase formed [2, 6]: Lamellar | Liquid crystalline phase formed ([2]; 20 to 50% ingredient directly mixed with GMO): reverse lamella crystalline structure | Phase structure ([2]; Concentration in GMO 1%): V2(Pn3m)

O=C(O)c1cccnc1 [Niacin]
liquid crystalline phase formed by blend with GMO [3]: hexagonal phase | logP [1]: 0.36

COc1ccc2c3c1O[C@H]1C(=O)CC[C@@]4(O)[C@@H](C2)N(C)CC[C@]314 [Oxycodone]
release characteristics (appearance of active ingredient in the receptor chamber over time) (porcine buccal mucosa): prolonged release profile with release continuing steadily at 4 hours

CC(C)c1nc(N(C)S(C)(=O)=O)nc(-c2ccc(F)cc2)c1/C=C/[C@@H](O)C[C@@H](O)CC(=O)O [Rosuvastatin, reference compound]
logP ([1]; at pH 5): 1.80 at pH 5 | logP ([1]; at pH 7): 0.30 at pH 7 | Liquid crystalline phase formed [2, 6]: Lamellar | Phase structure ([2]; Concentration in GMO 1%): V2(Pn3m) | Phase structure ([2]; Concentration in GMO 5%): V2(Pn3m) | Phase structure ([2]; Concentration in GMO 10%): V2(Pn3m) | Phase structure ([2]; Concentration in GMO 15%): V2(Pn3m) + V2(Im3m) | Phase structure ([2]; Concentration in GMO 20%): Lα | Phase structure ([2]; Concentration in GMO 35%): Lα + Lα | Phase structure ([2]; Concentration in GMO 50%): Lα | limit of inclusion before GMO is prevented from forming a cubic liquid crystalline structure ([2]; directly mixed with GMO, contact with hydrophilic solvent): 15% | Liquid crystalline phase formed ([2]; up to 15% w/w ingredient in mix with GMO): Cubic (2 types)

O=S(=O)([O-])NC1CCCCC1.[Na+] [Sodium cyclamate]
Liquid crystalline phase formed ([2]; 20% w/w ingredient in mix with GMO): lamellar | Liquid crystalline phase formed ([2]; 50% w/w ingredient in mix with GMO): lamellar + crystals | Phase structure ([2]; Concentration in GMO 1%): V2(Pn3m) | Phase structure ([2]; Concentration in GMO 5%): V2(Pn3m) | Phase structure ([2]; Concentration in GMO 10%): V2(Pn3m) + other | Phase structure ([2]; Concentration in GMO 20%): Lα (lamella) | Phase structure ([2]; Concentration in GMO 35%): Lα + other | Phase structure ([2]; Concentration in GMO 50%): Lα + other | Liquid crystalline phase formed ([2]; up to 10% w/w ingredient in mix with GMO): cubic

CCOC(=O)CC(O)(CC(=O)OCC)C(=O)OCC [Tri ethyl citrate (TEC), Tri ethyl citrate]
Liquid crystalline phase formed ([2]; 35% and above w/w ingredient in mix with GMO): reverse emulsion | Phase structure ([2]; Concentration in GMO 1%): V2(Pn3m) (ie | Phase structure ([2]; Concentration in GMO 5%): V2(Pn3m) | Phase structure ([2]; Concentration in GMO 10%): V2(Pn3m) | Phase structure ([2]; Concentration in GMO 20%): V2(Pn3m) | Liquid crystalline phase formed ([2]; up to 20% w/w ingredient in mix with GMO): cubic
